Converted amounts (≈) assume the structure as drawn.
Columns and labels:
[1] = system: Burkholderia cepacia ATCC 17759; assay: MIC, agar dilution method; assay type: cell-based; conditions: ATCC17759, Mueller-Hinton agar, aerobic, 16-20 h at 36° C.
Source text: (§1) The formulations prepared according to Examples 11, 12 and 13, were used to evaluate the Minimal Inhibitory Concentration (MIC) required to inhibit the growth of the following organisms: Burkholderia cepacia, Haemophilus influenzae, and Pseudomonas aeruginosa, using the agar dilution method based on DIN 58940 and 58944 according to NCCLS (National Committee on Clinical Laboratory Standards) criteria. […] To determine MIC, Petri dishes containing Mueller-Hinton agar supplemented with agar-agar, or chocolate agar were prepared. Dilutions of the formulations prepared under Examples 11, 12, 13 and 14 were prepared in aqua purificata, resulting in solutions containing 1000 μg drug per ml (with exception of the formulation only containing levofloxacin, where a dilution containing 640 μg/ml was prepared). […] Two agar plates were poured for each test concentration and culture medium. After solidification and drying, the agar plates were inoculated with the test organisms and incubated as described in Table 7. [table] The MIC was given as the lowest concentration of the active substance at which there was no macroscopically visible growth. Minimal, barely visible growth or few small individual colonies were evaluated as inhibition. The MIC readings are generally subject to an error of up to two dilutions. […] For Haemophilus spp., it was defined that a breakpoint ≦4 μg/ml is classified as susceptible.

[2] = system: Pseudomonas aeruginosa ATCC 9027; assay: MIC, agar dilution method; assay type: cell-based; conditions: ATCC9027, Mueller-Hinton agar, aerobic, 16-20 h at 36° C.
Source text: as §1

[3] = system: Haemophilus influenzae ATCC 49247; assay: MIC, agar dilution method; assay type: cell-based; conditions: for MIC: ATCC49247, Chocolat agar, microaerophile, 16-20 h at 36° C.
Source text: as §1

[4] = cited from earlier work
[5] = after single oral dose administration

For CC[C@H]1OC(=O)[C@H](C)[C@@H](O[C@H]2C[C@@](C)(OC)[C@@H](O)[C@H](C)O2)[C@H](C)[C@@H](O[C@@H]2O[C@H](C)C[C@H](N(C)C)[C@H]2O)[C@](C)(O)C[C@@H](C)CN(C)[C@H](C)[C@@H](O)[C@]1(C)O [Azi., azithromycin], the MIC [1] was 25 µg/mL (≈ 33.4 µM), the MIC [2] was 6.25 µg/mL (≈ 8.34 µM) and the susceptibility classification [3] was “resistant”. For the same compound, the MIC [3] was 25 µg/mL (≈ 33.4 µM), the “concentration in sputum exceeds the plasma concentration” value ([4]; after multiple oral doses) was 67 fold and the “concentration in alveolar macrophages exceeds plasma concentration” value [4, 5] was 170 fold. For the same compound, the “concentration in bronchial mucosa exceeds plasma concentration” value [4, 5] was 29 fold.
C[C@H]1COc2c(N3CCN(C)CC3)c(F)cc3c(=O)c(C(=O)O)cn1c23 [Levo., levofloxacin] showed an MIC [1] of 4 µg/mL (≈ 11.1 µM), an MIC [2] of 0.5 µg/mL (≈ 1.38 µM) and an MIC [3] of 0.25 µg/mL (≈ 0.692 µM).
With NC[C@H]1O[C@H](O[C@H]2[C@H](O)[C@@H](O[C@H]3O[C@H](CO)[C@@H](O)[C@H](N)[C@H]3O)[C@H](N)C[C@@H]2N)[C@H](N)C[C@@H]1O [Tobr., tobramycin] the MIC [1] was 50 µg/mL (≈ 107 µM), the MIC [2] was 0.781 µg/mL (≈ 1.67 µM) and the susceptibility classification [3] was “resistant”. The MIC [3] was 50 µg/mL (≈ 107 µM).

— patent publication US20090232744A1, “Macrolide compositions having improved taste and stability” (priority 2008, published 2009)
